Measured values published in patent publication US20090062255A1, “TUMOR-TARGETING EVALUATION METHODOLOGY AND COMPOUNDS RELATED THERETO” (THALLION PHARMACEUTICALS INC., priority 2007, published 2009).
Entries after “also recorded” stand apart in the source; their conditions may differ.

Experiments:
GTP-bound Ras = assay: Ras activation pull-down assay (GST-Raf-RBD) in MCF-7 cells; type: cell-based, human; settings: 6 h treatment, EGF 5 min
Protocol: Following EGF induction, Ras is activated by a nucleotide exchange reaction that removes GDP and replaces it with GTP. Physiological levels of total cellular GTP-bound Ras can be detected with pull-down assays. MCF-7 cells were treated with increasing concentrations of ECO-4601 for 6 h and the Ras-MAPK signalling pathway was then induced with EGF. After a 5 min induction period, cells were lysed and incubated with a recombinant fusion protein that contains the isolated Ras Binding Domain of c-Raf-1 fused the gluthathione-S-transferese (GST; designated GST-Raf-RBD). The presence of Ras in the GST-Raf-RBD protein complex is resolved by western blotting. As expected, after EGF induction, an increase of Ras-GTP was observed.

human c-RAF = biological target: T1, human c-RAF (Homo sapiens, UniProt P04049); assay: Upstate Kinase Profiler, c-RAF; type: biochemical
T1 construct: purchased Upstate (Kinase Profiler Service; Dundee, UK)
Protocol: Unlike current Ras signalling pathway inhibitors, ECO-4601 is not a direct kinase inhibitor. This was documented by evaluating the effect of ECO-4601 on human EGFR, c-RAF, MEK1, MAPK1 (ERK1) and MAPK2 (ERK2) kinase-activity (Upstate Kinase Profiler™ Service; Dundee, UK). ECO-4601 was tested at 0.5 μM and 5 μM in a final volume of 25 μL according to standard protocols developed by Upstate Ltd. Briefly, purified recombinant human enzymes were incubated with 25 mM Tris pH 7.5 containing EGTA, a specific substrate and γ-^32P-ATP. The reaction was initiated with MgATP mix and incubated for 40 minutes at RT. The reaction was stopped by the addition of 5 μL of a 3% phosphoric acid solution; aliquots were spotted on filters and counted. Detailed procedures are available on the Millipore Upstate website.

[1] = system: human uterine sarcoma MES-SA; assay: Growth inhibitory MTT assay, MES-SA; type: cell-based; settings: 72 hours, treated over control
Protocol: (§1) Growth inhibitory activity of ECO-4601 (Compound 1) and other dibenzodiazepinone analogs was evaluated on a panel of 4 human tumor cell lines: the human uterine sarcoma MES-SA and its doxorubicin-resistant P-glycoprotein over-expressing variant, MES-SA/DX5 as well as non-aggressive and highly aggressive human breast cell lines, MCF-7 and MDA-MB-231, respectively. These four cell lines were obtained from the American Type Culture Collection (Manassas, Va.) and cultured in RPMI plus 10% fetal bovine serum (FBS) and maintained at 37° C. with 5% CO2.
(§2) Exponentially growing cells (5,000 cells per well time; cell number determined with a hemocytometer) were seeded in 96-well flat-bottom plates and allowed to grow overnight. Cells were then incubated for 72 hours with three different concentrations of ECO-4601 or analogs: 30,10, and 3 μM. The in vitro growth inhibitory activity was determined by a commercial MTT assay. All measurements were done in quadruplicate and each experiment was performed 2-3 times. The lower the value, the more cytotoxic is the compound.

[2] = system: GHD astrocytoma cell line; assay: MTT cytotoxicity, GHD cell line; type: cell-based; settings: 96 h, Human
Protocol: The cytotoxic activity of Compound 1 was further evaluated using a panel of brain tumor cell lines. This study was performed in collaboration with INSERM (Grenoble, France). Tumor cells (5,000 to 10,000 cells per well depending on their doubling time) were plated in 96-well flat-bottom plates and incubated for 24 hours before treatment. Tumor cells were then incubated for 96 hours with seven different concentrations of Compound 1: […], 0.01, and 0.001 μM. The in vitro cytotoxic activity was determined by a standard MTT assay.

[3] = system: prenylation of Ras, RAP1A and HDJ2 (FTase, GGTase I); assay: Protein prenylation immunoblot (FTase and GGTase I activities) in MCF-7 cells; type: cell-based, human; settings: MCF7 cells, 3, 10 and 30 μM, 24 h; listed as ECO-4601
Protocol: It was first verified if ECO-4601 interferes with Ras processing by monitoring FTase and GGTase I activities by immunoblot analysis. For these experiments, exponentially growing MCF-7 (human breast tumor) cells were seeded in 60 mm cell culture dishes at a density of 2.5×10^6 cells per dish. After an 18 h incubation period, ECO-4601 or lovastatin (Sigma-Aldrich, St. Louis, Mo.) were added at a final concentration of 3, 10 and 30 μM for 24 h. Cells were also treated with the vehicle alone (0.05% DMSO) for the same incubation periods. Treated and control cells were lysed in ice-cold RIPA buffer (50 mM Tris-HCl pH 7.4, 1% Triton X-100, 1% deoxycholate, 0.1% SDS, 150 mM NaCl, and 1 mM EDTA) containing protease inhibitors (Roche, Mannheim, Germany) and phosphatase inhibitors (EMD Biosciences, Calbiochem, San Diego, Calif.) for 20 minutes on ice. After lysis, cell debris was removed by centrifugation at 12000×g for 10 min. […] Bound antibodies were detected using horseradish peroxidase-conjugated secondary antibodies (Jackson ImmunoResearch Laboratories Inc., West Grove, Pa.) for 1 h at room temperature in 0.5% skim milk-TBS, visualized by treating the membranes with enhanced chemiluminescence reagents (Millipore, Mississauga, ON, Canada) and exposing them to BioMax Light Films (Kodak, Mississauga, ON, Canada). […]

[4] = system: genes involved in steroid biosynthesis, cholesterol transport/metabolism, signal transduction and apoptosis; assay: Gene expression in animals treated with Compound 1; settings: in vivo
[5] = system: MES-SA/DX5 (doxorubicin-resistant P-glycoprotein over-expressing variant); assay: Growth inhibitory MTT assay, MES-SA/DX5; type: cell-based, human; settings: 72 hours, treated over control
Protocol: as §1, §2

T1 sequence (P04049 whole entry): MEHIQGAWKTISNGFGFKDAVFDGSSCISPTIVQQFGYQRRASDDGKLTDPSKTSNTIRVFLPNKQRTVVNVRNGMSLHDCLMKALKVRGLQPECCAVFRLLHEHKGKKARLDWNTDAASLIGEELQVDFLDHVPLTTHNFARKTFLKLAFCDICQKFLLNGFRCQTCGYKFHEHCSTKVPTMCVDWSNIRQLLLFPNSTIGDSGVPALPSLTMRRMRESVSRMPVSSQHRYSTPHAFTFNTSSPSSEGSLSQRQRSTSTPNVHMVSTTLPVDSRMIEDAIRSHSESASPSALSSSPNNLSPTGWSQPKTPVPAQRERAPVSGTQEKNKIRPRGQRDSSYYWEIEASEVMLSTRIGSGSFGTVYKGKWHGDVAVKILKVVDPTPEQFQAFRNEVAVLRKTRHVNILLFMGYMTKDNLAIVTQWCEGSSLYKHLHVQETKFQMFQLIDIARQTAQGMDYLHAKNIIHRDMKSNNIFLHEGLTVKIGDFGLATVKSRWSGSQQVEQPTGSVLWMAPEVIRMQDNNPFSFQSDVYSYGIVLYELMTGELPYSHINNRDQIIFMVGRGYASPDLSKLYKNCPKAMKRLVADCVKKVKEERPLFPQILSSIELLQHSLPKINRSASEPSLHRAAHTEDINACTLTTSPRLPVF

CC(C)=CCC/C(C)=C/CC/C(C)=C/CN1C(=O)c2cccc(O)c2Nc2c(O)cc(O)cc21 [Compound 1, 10-farnesyl-4,6,8-trihydroxy-5,10-dihydrodibenzo[b,e][1,4]diazepin-11-one]
effect on EGF-induced Ras activation (Ras-GTP) (GTP-bound Ras): prevented EGF from activating Ras | direct inhibition of c-Raf kinase activity (in words) (human c-RAF; 0.5 μM and 5 μM): does not directly inhibit | activity at 0.5 µM (human c-RAF; c-Raf, 0.5 μM, % of enzyme activity over positive control, read-out: Kinase Activity (%) ± SD): 114 ± 12% | activity at 5 µM (human c-RAF; c-Raf, 5 μM, % of enzyme activity over positive control, read-out: Kinase Activity (%) ± SD): 94 ± 2% | % T/C at 10 μM [1]: 78% | IC50 [2]: 6.5 ± 2.9 µM | effect on protein prenylation (mobility shift of Ras, RAP1A and HDJ2) [3]: does not inhibit protein prenylation; also recorded: no effect | expression of several genes in treated animals [4]: increased expression | % T/C at 10 μM [5]: 100%
